From the METLIN SMRT retention time set (Domingo-Almenara et al. 2019) come the findings set out here.

This data set can be described thus: gradient 5% acetonitrile 3 min, to 50% in 2 min, to 85% in 15 min, held 3 min, 100 µL/min. The following applies: column: Zorbax Extend-C18 2.1 x 50 mm; eluents: water / acetonitrile, 0.1% formic acid. A digest of the protocol: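 The mobile phases were water and acetonitrile, each with 0.1% formic acid, pumped at 100 μL/min through a Zorbax Extend-C18 column (2.1 × 50 mm, 1.8 μm). Pure standards were injected as mixtures of ~100 molecules and detected by a quadrupole time-of-flight mass spectrometer in positive and negative ionization mode. Retention time came from computationally picked adduct peaks, each inspected by hand.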
Take `Cc1ccc(NC(=O)NC2CCN(c3ccccc3)C2=O)c(C)c1` (stereo not given): the RP-LC retention time is 823 s.

For `Cn1cnnc1SCCNC(=O)c1ccc(OCC(=O)C2CC2)cc1`, the RP-LC retention time is 603 s.

Consider `CC(C)c1cccc(NC(=O)C2CCN(C(=O)c3ncn4c3COC(c3ccc(F)cc3)C4)CC2)c1` (stereo not given), for which the RP-LC retention time stood at 931 s.

Turning to `O=C1CN(S(=O)(=O)c2ccccc2C(F)(F)F)CC2(CCCCC2)N1C1CCCC1`, the RP-LC retention time was 1230 s.

Consider `CN1C(=O)c2cc(C(=O)Nc3cccc(F)c3)nn2CC1(C)C(=O)NC1CCCCCC1` (stereo not given), for which the RP-LC retention time turned out to be 791 s.

In the case of `COc1ccc(C(=O)N2C[C@@H]3C[C@H]2C[C@@H]3NC(=O)c2ccccc2)cc1OC`, the RP-LC retention time turned out to be 678 s.

For the molecule `CC(C)(C)c1csc(-c2csc(S(=O)(=O)Nc3ccc(F)cc3)c2)n1`, the RP-LC retention time came out at 1220 s.

On to `CCCNC(=O)C1CCN(c2ccc(SCC(=O)Nc3cccc(C)c3C)nn2)CC1`, for which the RP-LC retention time is 642 s.

In the case of `O=C(Nc1ccc2c(c1)CN(C(=O)C1CC1)CC2)NC1CC1`, the RP-LC retention time was determined as 632 s.

`CCN(CCCNC(=O)c1sc2ncccc2c1-n1cccc1)c1ccccc1` had an RP-LC retention time of 709 s.

Turning to `COc1ccc2[nH]c(-c3ccccc3)cc2c1`, the RP-LC retention time came out at 1040 s.

With `COC(=O)C(Cc1ccccc1)NC(=O)N1CCCn2nc(-c3cccs3)cc2C1` (stereo not given), the RP-LC retention time amounted to 841 s.

Molecule `Nc1cc(C2CCN(S(=O)(=O)Cc3cccc(F)c3)CC2)no1` gave an RP-LC retention time of 742 s.

Regarding `COc1ccc2cc1Oc1ccc(cc1)CC1c3c(cc(OC)c4c3Oc3cc5c(cc3O4)CCNC5C2)CCN1C` (stereo not given), the RP-LC retention time stood at 601 s.

On to `CCn1nc(N2CCCC(NC(=O)C3(c4ccccc4)CCCC3)C2)ccc1=O` (stereo not given), for which the RP-LC retention time came to 792 s.

`COc1ccc(NC(=O)c2nnc(COCC(=O)NCCc3c[nH]c4ccc(Cl)cc34)s2)cc1` yielded an RP-LC retention time of 894 s.

Molecule `CCOc1ccc2ncc(C(=O)c3ccc(C)cc3)c(N3CCN(C)CC3)c2c1` displayed an RP-LC retention time of 561 s.

The molecule `CN(C)CCCOc1nn(Cc2ccccc2)c2ccccc12` returned an RP-LC retention time of 750 s.

For the molecule `CCc1ccccc1NC(=O)CSc1cc(N2CCN(c3ccc(OC)cc3)CC2)ncn1`, the RP-LC retention time was found to be 1010 s.

For the molecule `Cc1oc(C2CCN(C(=O)Nc3ccc(Br)cc3)CC2)nc1C(=O)N(C)C`, the RP-LC retention time was determined as 759 s.

As for `CCCNC(=O)N1CCCC1c1nc(-c2ccc(OC)cc2)no1` (stereo not given), the RP-LC retention time was 758 s.

As for `CC(=O)c1cccc(C(=O)N2CCC3(CC2)NC(=O)N(Cc2cccc(Cl)c2)C3=O)c1`, the RP-LC retention time came to 771 s.

With `CCc1c(C)nc2ncnn2c1N1CCCC1`, the RP-LC retention time was found to be 733 s.

For `Cc1ccc(CN2C(=O)NC3(CCN(C(=O)COc4ccc(C)cc4)CC3)C2=O)cc1`, the RP-LC retention time turned out to be 876 s.

In turn, `O=C(CCCn1c(=O)c2cccn2c2ccc(F)cc21)N1CCN(c2ccccn2)CC1` registered an RP-LC retention time of 635 s.

Molecule `CCn1nnc2ccc(-c3noc(-c4ccc(C)cc4)n3)cc21` came in with an RP-LC retention time of 1140 s.

Molecule `CC(=O)Nc1ccc(CCc2nc3ccc(C(=O)NC4CCCCCC4)cc3[nH]2)cc1` showed an RP-LC retention time of 650 s.

`Cc1cccc2sc(N(CCN(C)C)C(=O)c3ccc(S(=O)(=O)N(C)C)cc3)nc12`: the RP-LC retention time is 598 s.

Consider `O=C(Nc1nc(-c2ccccc2)cs1)c1ccccc1[N+](=O)[O-]`, for which the RP-LC retention time was 947 s.

As for `COc1ccc(-c2nnc(-c3cccc(S(=O)(=O)N4CCCCC4)c3)o2)cc1OC`, the RP-LC retention time was determined as 991 s.

`COc1ccc(-c2nnc(N3CCC(C(=O)N4CCC5(CC4)OCCO5)CC3)o2)cc1` gave an RP-LC retention time of 704 s.

In turn, `Cc1ccc(Cn2cc(-c3noc(-c4ccc5c(c4)OCO5)n3)nn2)cc1` showed an RP-LC retention time of 1020 s.

In turn, `CCS(=O)(=O)Nc1ccc(C2(C(=O)NCc3cccc(C)c3)CCC2)cc1` had an RP-LC retention time of 869 s.

`Cc1nnc(N2CCCC(C(=O)NCCC(C)C)C2)c2nn(-c3ccc(Cl)cc3)c(C)c12` (stereo not given) had an RP-LC retention time of 783 s.

The molecule `CC(Oc1ccc(-c2cnc3ccccc3n2)cc1)C(=O)N1CCN(c2ccccn2)CC1` (stereo not given) came in with an RP-LC retention time of 650 s.

Regarding `COCCOc1ccc2c(n1)CCN(C(=O)NC1CCCCC1)C2`, the RP-LC retention time came out at 760 s.

Turning to `O=C1CN(C(=O)Cc2ccc(OC(F)(F)F)cc2)C2(CCCC2)CN1`, the RP-LC retention time worked out at 790 s.

For the molecule `O=C(c1cn(-c2cc(N3CCSCC3)ncn2)cn1)N1CCCCC1`, the RP-LC retention time was 789 s.

`CCc1ccc(CNC(=O)C2CCCN(c3nc4c(s3)c(C)nn4-c3ccccc3)C2)cc1` (stereo not given) came in with an RP-LC retention time of 1230 s.

Take `CN(C(=O)Cn1nc(Cc2ccncc2)c2ccccc2c1=O)c1cccc(Cl)c1`: the RP-LC retention time turned out to be 644 s.

Turning to `O=C(CCS(=O)(=O)c1ccccc1)N(Cc1ccccn1)Cc1ccco1`, the RP-LC retention time is 610 s.

Consider `O=C(Nc1nc(-c2ccccc2)cs1)c1ccc(COc2ccc(Cl)cc2Cl)o1`, for which the RP-LC retention time came out at 1280 s.

In the case of `CCc1ccc(C(C)NC(=O)c2ccnc3c(NC(C)=O)cccc23)cc1` (stereo not given), the RP-LC retention time came to 896 s.

`Cc1cc2nc(C(F)(F)F)c(=O)n(C(C)C(=O)N3CCN(c4ccccn4)CC3)c2cc1C` (stereo not given) gave an RP-LC retention time of 796 s.

In turn, `COCCNC(=O)[C@@H]1[C@H](c2cc(OC)c(OC)c(OC)c2)c2cc3c(cc2[C@H](O)[C@H]1CO)OCO3` had an RP-LC retention time of 623 s.

Take `COc1ccccc1-c1noc(-c2nc(-c3ccc4c(c3)OCO4)no2)n1`: the RP-LC retention time amounted to 1120 s.

In turn, `O=C1NC(C(=O)NCc2ccccn2)Cn2cccc21` (stereo not given) displayed an RP-LC retention time of 541 s.

As to `Cc1nnc(NC(=O)c2nc(-c3cnccn3)no2)s1`, the RP-LC retention time was 598 s.

Take `O=C(Nc1nc(-c2ccc(-c3ccccc3)cc2)cs1)c1cccnc1`: the RP-LC retention time was 1030 s.

`CCOc1cc(C)c(S(=O)(=O)N2CCC(C(N)=O)CC2)cc1C` gave an RP-LC retention time of 715 s.

In turn, `CSc1ccc(CC(=O)Nc2nnc(-c3cc(C)n(C)n3)o2)cc1` showed an RP-LC retention time of 669 s.

Regarding `NCCSSCc1ccccc1CSSCCN`, the RP-LC retention time was 567 s.

On to `CN(CCNC(=O)CN1C(=O)CSc2cccn2-c2ccccc21)C1CCCCC1`, for which the RP-LC retention time is 670 s.

As for `c1cc2c(cc1-c1nnc(C3CCC3)o1)OCO2`, the RP-LC retention time was determined as 865 s.

In the case of `O=C(Cc1ccc(F)cc1)N1CCN(C(=O)c2nnn3c2COC(c2ccc(F)cc2)C3)CC1` (stereo not given), the RP-LC retention time was found to be 861 s.

Molecule `Cc1ccccc1-c1noc(CCc2nnc3ccc(N4CCN(c5ccccn5)CC4)nn23)n1` gave an RP-LC retention time of 647 s.

`Cc1ccc(-c2nc3nc(C)c(CC(=O)N4CCCC4)c(C)n3n2)cc1` came in with an RP-LC retention time of 738 s.

As to `COc1cc(OC)cc(-c2nc(C3CC(=O)N(c4ccc(Cl)cc4)C3)no2)c1` (stereo not given), the RP-LC retention time is 1290 s.

In turn, `COc1ccc(N2CC(c3nc(-c4ccc(Br)cc4)no3)CC2=O)cc1OC` (stereo not given) showed an RP-LC retention time of 977 s.

`Cn1ccnc1C(=O)N1CCc2nn(CC3CC3)c(=O)n2CC1` gave an RP-LC retention time of 565 s.

As to `Cc1oc2ccn(Cc3ccc(F)cc3)c(=O)c2c1C(=O)O`, the RP-LC retention time was 873 s.

Regarding `O=C(Cn1nc2c(N3CCSCC3)nccn2c1=O)Nc1ccc2c(c1)OCCO2`, the RP-LC retention time is 737 s.

`CCC1CN2C=NC(N3CCN(C(=O)Nc4ccccc4Cl)CC3)=CC2=N1` (stereo not given): the RP-LC retention time was found to be 814 s.

Regarding `CCc1nccn1Cc1noc(-c2ccc(C)cc2)n1`, the RP-LC retention time was 648 s.

Take `COc1cccc(-c2nnc(Cc3nc(-c4cccc(F)c4)no3)o2)c1`: the RP-LC retention time amounted to 991 s.

In turn, `CCN1C(=O)COc2ccc(-c3csc(NC(=O)CC(C)C)n3)cc21` displayed an RP-LC retention time of 928 s.

`CN(C)S(=O)(=O)NCc1nnnn1C1CCCCC1`: the RP-LC retention time amounted to 681 s.

The molecule `CCN1CCCC1CNC(=O)Cn1ncn2nc(-c3ccccc3)cc2c1=O` (stereo not given) yielded an RP-LC retention time of 604 s.

For the molecule `CCN(CC)C(=O)COc1cc(C(F)(F)F)c2c(C)nn(-c3ccc(C)cc3)c2n1`, the RP-LC retention time turned out to be 1250 s.

`COC(=O)c1c(NCCC(C)C)c2cccc(Cl)c2[nH]c1=O` returned an RP-LC retention time of 847 s.

The molecule `COc1ccc(-c2ncc3c(n2)CCN(C(=O)c2ccc(Cl)cc2)C3)cc1` gave an RP-LC retention time of 969 s.

Consider `O=C(O)c1cc(N2CCN(CC(=O)N3CCCCCC3)CC2)ccc1NC(=O)C1CCC1`, for which the RP-LC retention time is 636 s.

In turn, `CC(C)(C)C1CCC2(CC1)CCN(CCCN1CCOCC1)CC2` returned an RP-LC retention time of 619 s.

As to `O=C(c1ccncc1)N1CCCN(c2cc(-c3ccc4c(c3)OCO4)[nH]n2)CC1`, the RP-LC retention time came out at 605 s.

For the molecule `CCOC(=O)c1[nH]c(C)c(CCC(=O)N2CCC(C(=O)NC3CCCC3)CC2)c1C`, the RP-LC retention time came out at 729 s.

As for `O=C(NCCc1ccco1)c1ccc2c(c1)NC(=O)C1CCCCN21` (stereo not given), the RP-LC retention time was 739 s.

Turning to `Clc1ccc(C2CC3CCC2N3)cn1` (stereo not given), the RP-LC retention time worked out at 613 s.

On to `COc1ccc(C(=O)N2CCN(c3nc(CN4CCOCC4)cs3)CC2)cn1`, for which the RP-LC retention time was determined as 580 s.

Molecule `CCC(=O)c1ccc2c(c1)N(CCCN(C)C)c1ccccc1S2` came in with an RP-LC retention time of 772 s.

Regarding `CCc1nc(OCC(=O)NCc2cccc(F)c2)c2c(C)c(C)oc2n1`, the RP-LC retention time worked out at 942 s.
